{"source": "the supplement of paper PMC10307832", "assay_in_all_cases": "relative viability (nuclei count vs DMSO), 5 days (fraction); higher = more cells survive", "key": {"TPCA-1 + Luminespib": {"compound": "C1=CC(=CC=C1C2=CC(=C(S2)NC(=O)N)C(=O)N)F [TPCA-1] + CCNC(=O)c1noc(-c2cc(C(C)C)c(O)cc2O)c1-c1ccc(CN2CCOCC2)cc1 [Luminespib] (partner 0.01 µM)", "in_short": "(§1)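 Values are medians from duplicate plates. Each reflects relative viability, defined as the nuclei count of treated wells over that of vehicle wells. Lung cancer cell lines in 1536-well plates were pin-tool dosed one day after seeding with one drug alone or with a fixed anchor-drug dose plus five library-drug doses (not always all listed) in √10 steps, then fixed, stained and imaged at 4× after 5 days.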"}, "TPCA-1 + Foretinib": {"compound": "C1=CC(=CC=C1C2=CC(=C(S2)NC(=O)N)C(=O)N)F [TPCA-1] + COc1cc2c(Oc3ccc(NC(=O)C4(C(=O)Nc5ccc(F)cc5)CC4)cc3F)ccnc2cc1OCCCN1CCOCC1 [Foretinib] (partner 0.25 µM)", "in_short": "as §1"}, "Lestaurtinib + OSI-027": {"compound": "C[C@]12O[C@H](C[C@]1(O)CO)n1c3ccccc3c3c4c(c5c6ccccc6n2c5c31)CNC4=O [Lestaurtinib] + COc1cccc2cc(-c3nc([C@H]4CC[C@H](C(=O)O)CC4)n4ncnc(N)c34)[nH]c12 [OSI-027] (partner 0.5 µM)", "in_short": "as §1"}, "[1]": {"compound": "C[C@]12O[C@H](C[C@]1(O)CO)n1c3ccccc3c3c4c(c5c6ccccc6n2c5c31)CNC4=O [Lestaurtinib] + Nc1nc2[nH]cc(CCc3ccc(C(=O)N[C@@H](CCC(=O)O)C(=O)O)cc3)c2c(=O)[nH]1 [Pemetrexed] (partner 0.2 µM)", "in_short": "as §1"}}}
{"cell line": "UMC-11", "values": [{"measurement": "relative viability", "setting": "TPCA-1 + Luminespib; first compound 0.04 µM", "value": 1.18}, {"measurement": "relative viability", "setting": "TPCA-1 + Luminespib; first compound 0.1265 µM", "value": 0.914}, {"measurement": "relative viability", "setting": "TPCA-1 + Luminespib; first compound 0.4 µM", "value": 1.09}, {"measurement": "relative viability", "setting": "TPCA-1 + Luminespib; first compound 1.265 µM", "value": 0.957}, {"measurement": "relative viability", "setting": "TPCA-1 + Luminespib; first compound 4 µM", "value": 0.684}, {"measurement": "relative viability", "setting": "TPCA-1 + Foretinib; first compound 0.04 µM", "value": 1.16}, {"measurement": "relative viability", "setting": "TPCA-1 + Foretinib; first compound 0.1265 µM", "value": 1.02}, {"measurement": "relative viability", "setting": "TPCA-1 + Foretinib; first compound 0.4 µM", "value": 1.04}, {"measurement": "relative viability", "setting": "TPCA-1 + Foretinib; first compound 1.265 µM", "value": 0.925}, {"measurement": "relative viability", "setting": "TPCA-1 + Foretinib; first compound 4 µM", "value": 0.387}, {"measurement": "relative viability", "setting": "Lestaurtinib + OSI-027; first compound 0.005 µM", "value": 0.48}, {"measurement": "relative viability", "setting": "Lestaurtinib + OSI-027; first compound 0.01581 µM", "value": 0.385}, {"measurement": "relative viability", "setting": "Lestaurtinib + OSI-027; first compound 0.05 µM", "value": 0.293}, {"measurement": "relative viability", "setting": "Lestaurtinib + OSI-027; first compound 0.1581 µM", "value": 0.283}, {"measurement": "relative viability", "setting": "Lestaurtinib + OSI-027; first compound 0.5 µM", "value": 0.177}, {"measurement": "relative viability", "setting": "[1]; first compound 0.005 µM", "value": 0.923}, {"measurement": "relative viability", "setting": "[1]; first compound 0.01581 µM", "value": 0.859}, {"measurement": "relative viability", "setting": "[1]; first compound 0.05 µM", "value": 0.436}, {"measurement": "relative viability", "setting": "[1]; first compound 0.1581 µM", "value": 0.256}, {"measurement": "relative viability", "setting": "[1]; first compound 0.5 µM", "value": 0.176}]}
